Key:
[1] = tested on: monocrotaline rat model of PH; conditions: drugs delivered systemically; cited from earlier work
[2] = Encapsulation efficiency, loading and release kinetics of drugs from PLGA microparticles; type: physicochemical; conditions: different formulations (single drug or combination); 0.2% tween 80, 37° C.
Protocol: The morphology of the microparticles was characterized using scanning electron microscopy (SEM—JEOL JSM6510) and the average size of the blank microparticles was determined using dynamic light scattering (Malvern, Worcestershire, UK). The release kinetics of the drugs from PLGA microparticles was determined by incubating 1 mg of microparticles with or without drugs in 1 mL of 0.2% tween 80 (Fisher Scientific, Pittsburgh, PA) in centrifuge tubes on end-over-end rotator at 37° C. Every day for 10 days, the tubes were centrifuged at 2000 g for 5 min, 0.8 mL of the supernatant was retrieved and frozen at −20° C., and 0.8 mL of fresh 0.2% tween 80 was replaced in the tubes. These tubes were then returned to the incubator.
In order to assess the concentration of verteporfin, UV-vis spectroscopy plate reader (SpectraMax, Molecular Devices, Sunnyvale, CA) was utilized. […] Using this wavelength, a standard curve was plotted, and the concentration of the released verteporfin from microparticles was determined. The cumulative amount of verteporfin released from the microparticles was quantified and utilized to determine the percentage encapsulation efficiency and percentage loading.
In order to assess the concentration of CB-839, a high-performance liquid chromatography (HPLC Ultimate 3000, Fisher Scientific, Pittsburgh, PA) protocol was developed. […]

Which “reversal of PH (hemodynamic and histopathologic manifestations)” value [1] does the source give for `CN(C)c1ccc(C2Nc3ccc4ccccc4c3C3=C2C(=O)CC(C)(C)C3)cc1Br` (centres unmarked) [C968, 5-(3-Bromo-4-(dimethylamino)phenyl)-2,2-dimethyl-2,3,5,6-tetrahydrobenzo[a]phenanthridin-4(1H)-one] here?
Its value is “substantial reversal”.

Which results are given for `O=C(Cc1cccc(OC(F)(F)F)c1)Nc1ccc(CCCCc2nnc(NC(=O)Cc3ccccn3)s2)nn1` [CB-839]?
reversal of PH (hemodynamic and histopathologic manifestations) [1]: substantial reversal; duration of sustained release from PLGA microparticles [2]: 10 days

Which results are given for `C=Cc1c(C)c2cc3nc(cc4[nH]c(cc5nc(cc1[nH]2)C(C)=C5CCC(=O)O)c(CCC(=O)OC)c4C)[C@@]1(C)C3=CC=C(C(=O)OC)[C@H]1C(=O)OC` [verteporfin, 3-[(23S,24R)-14-ethenyl-5-(3-methoxy-3-oxopropyl)-22,23-bis(methoxycarbonyl)-4,10,15,24-tetramethyl-25,26,27,28-tetraazahexacyclo[16.6.1.1^3,6.1^8,11.1^13,16.0^19,24]octacosa-1,3,5,7,9,11(27),12,14,16,18(25),19,21-dodecaen-9-yl]propanoic acid]?
reversal of PH (hemodynamic and histopathologic manifestations) [1]: substantial reversal; duration of sustained release from PLGA microparticles [2]: 6 days

Source: US12653785B2, “Compositions and methods for administering a YAP1/WWRT1 inhibiting composition and a GLS1 inhibiting composition” (UNIVERSITY OF PITTSBURGH—OF THE COMMONWEALTH SYSTEM OF …, priority 2020, dated 2026)
